Experimental data published in ChEMBL document CHEMBL4002623, “Synthesis and in vitro activity of dicationic indolyl diphenyl ethers as novel potent antibiotic agents against drug-resistant bacteria” (Bioorg Med Chem Lett, 2017).
Converted amounts (≈) assume the structure as drawn.

Tests used:
[1] = test system: Staphylococcus epidermidis; assay: Antibacterial activity against methicillin-sensitive Staphylococcus epidermidis ATCC 12228 by agar dilution method; type: functional
Enterococcus faecalis [2] = assay: Antibacterial activity against vancomycin-sensitive Enterococcus faecalis ATCC 29212 by agar dilution method; type: functional
[3] = test system: Staphylococcus epidermidis; assay: Antibacterial activity against methicillin-sensitive Staphylococcus epidermidis 09-9 by agar dilution method; type: functional
Enterococcus faecalis [4] = assay: Antibacterial activity against vancomycin-sensitive Enterococcus faecalis 09-8 by agar dilution method; type: functional
Staphylococcus aureus [5] = assay: Antibacterial activity against methicillin-sensitive Staphylococcus aureus ATCC 29213 by agar dilution method; type: functional
Escherichia coli [6] = assay: Antibacterial activity against extended-spectrum beta-lactamase-negative Escherichia coli ATCC 25922 by agar dilution method; type: functional
Escherichia coli [7] = assay: Antibacterial activity against extended-spectrum beta-lactamase-positive Escherichia coli 09-1 by agar dilution method; type: functional
Klebsiella pneumoniae [8] = assay: Antibacterial activity against extended-spectrum beta-lactamase-negative Klebsiella pneumoniae 7 by agar dilution method; type: functional
Klebsiella pneumoniae [9] = assay: Antibacterial activity against extended-spectrum beta-lactamase-positive Klebsiella pneumoniae 09-25 by agar dilution method; type: functional
Klebsiella pneumoniae [10] = assay: Antibacterial activity against Klebsiella pneumoniae ATCC BAA-2146 expressing NDM-1 by agar dilution method; type: functional
[11] = Cytotoxicity against HEK293T cells after 48 hrs by MTS assay; type: cell-based, HEK-293T; conditions: human
Enterococcus faecium [12] = assay: Antibacterial activity against vancomycin-sensitive Enterococcus faecium 09-10 by agar dilution method; type: functional
Staphylococcus aureus [13] = assay: Antibacterial activity against methicillin-sensitive Staphylococcus aureus 15 by agar dilution method; type: functional
Staphylococcus aureus [14] = assay: Antibacterial activity against methicillin-sensitive Staphylococcus aureus 09-6 by agar dilution method; type: functional
Escherichia coli [15] = assay: Antibacterial activity against extended-spectrum beta-lactamase-negative Escherichia coli 1515 by agar dilution method; type: functional
Escherichia coli [16] = assay: Antibacterial activity against extended-spectrum beta-lactamase-negative Escherichia coli 09-20 by agar dilution method; type: functional
Klebsiella pneumoniae [17] = assay: Antibacterial activity against extended-spectrum beta-lactamase-positive Klebsiella pneumoniae ATCC 700603 by agar dilution method; type: functional
Klebsiella pneumoniae [18] = assay: Antibacterial activity against extended-spectrum beta-lactamase-negative Klebsiella pneumoniae 09-8 by agar dilution method; type: functional
Pseudomonas aeruginosa [19] = assay: Antibacterial activity against Pseudomonas aeruginosa ATCC 27853 by agar dilution method; type: functional
Pseudomonas aeruginosa [20] = assay: Antibacterial activity against Pseudomonas aeruginosa PAO1 by agar dilution method; type: functional
Pseudomonas aeruginosa [21] = assay: Antibacterial activity against Pseudomonas aeruginosa 09-14 by agar dilution method; type: functional
[22] = test system: Acinetobacter calcoaceticus; assay: Antibacterial activity against Acinetobacter calcoaceticus ATCC 19606 by agar dilution method; type: functional
Enterobacter cloacae = assay: Antibacterial activity against Enterobacter cloacae 45301 by agar dilution method; type: functional
Klebsiella aerogenes = assay: Antibacterial activity against Enterobacter aerogenes 45102 by agar dilution method; type: functional
Serratia marcescens = assay: Antibacterial activity against Serratia marcescens 41002 by agar dilution method; type: functional
Morganella morganii = assay: Antibacterial activity against Morganella morganii ATCC 25830 by agar dilution method; type: functional
Providencia rettgeri = assay: Antibacterial activity against Providencia rettgeri ATCC 31052 by agar dilution method; type: functional
Proteus vulgaris = assay: Antibacterial activity against Proteus vulgaris ATCC 29905 by agar dilution method; type: functional
Proteus mirabilis = assay: Antibacterial activity against Proteus mirabilis 09-1 by agar dilution method; type: functional
Citrobacter freundii = assay: Antibacterial activity against Citrobacter freundii ATCC 43864 by agar dilution method; type: functional
Staphylococcus aureus [23] = assay: Antibacterial activity against methicillin-resistant Staphylococcus aureus 09-13 by agar dilution method; type: functional
[24] = test system: Staphylococcus epidermidis; assay: Antibacterial activity against methicillin-resistant Staphylococcus epidermidis 09-3 by agar dilution method; type: functional
Enterococcus faecalis [25] = assay: Antibacterial activity against vancomycin-resistant Enterococcus faecalis 09-9 by agar dilution method; type: functional
Enterococcus faecium [26] = assay: Antibacterial activity against vancomycin-resistant Enterococcus faecium ATCC 700221 by agar dilution method; type: functional
Staphylococcus aureus [27] = assay: Antibacterial activity against methicillin-resistant Staphylococcus aureus ATCC 33591 by agar dilution method; type: functional
Enterococcus faecalis [28] = assay: Antibacterial activity against vancomycin-resistant Enterococcus faecalis ATCC 51299 by agar dilution method; type: functional
Enterococcus faecium [29] = assay: Antibacterial activity against vancomycin-resistant Enterococcus faecium 05-8 by agar dilution method; type: functional
Salmonella typhi = assay: Antibacterial activity against Salmonella typhi H901 by agar dilution method; type: functional, Salmonella enterica subsp. enterica serovar Typhi; conditions: Salmonella enterica

SMILES | MIC [1] | MIC (Enterococcus faecalis [2]) | MIC [3] | MIC (Enterococcus faecalis [4]) | MIC (Staphylococcus aureus [5]) | MIC (Escherichia coli [6]) | MIC (Escherichia coli [7]) | MIC (Klebsiella pneumoniae [8]) | MIC (Klebsiella pneumoniae [9]) | MIC (Klebsiella pneumoniae [10]) | CC50 at 48 h [11] | MIC (Enterococcus faecium [12]) | MIC (Staphylococcus aureus [13]) | MIC (Staphylococcus aureus [14]) | MIC (Escherichia coli [15]) | MIC (Escherichia coli [16]) | MIC (Klebsiella pneumoniae [17]) | MIC (Klebsiella pneumoniae [18]) | MIC (Pseudomonas aeruginosa [19]) | MIC (Pseudomonas aeruginosa [20]) | other results
CN[C@H](CC(C)C)C(=O)N[C@H]1C(=O)N[C@@H](CC(N)=O)C(=O)N[C@H]2C(=O)N[C@H]3C(=O)N[C@H](C(=O)N[C@H](C(=O)O)c4cc(O)cc(O)c4-c4cc3ccc4O)[C@H](O)c3ccc(c(Cl)c3)Oc3cc2cc(c3O[C@@H]2O[C@H](CO)[C@@H](O)[C@H](O)[C@H]2O[C@H]2C[C@](C)(N)[C@H](O)[C@H](C)O2)Oc2ccc(cc2Cl)[C@H]1O [VANCOMYCIN] | 0.5 µg/mL (≈ 0.345 µM) | 1 µg/mL (≈ 0.69 µM) | 0.5 µg/mL (≈ 0.345 µM) | 1 µg/mL (≈ 0.69 µM) | – | – | – | – | – | – | – | – | – | – | – | – | – | – | – | – | –
c1cc(-c2cc3ccc(C4=NCCN4)cc3[nH]2)ccc1Oc1ccc(-c2cc3ccc(C4=NCCN4)cc3[nH]2)cc1 | – | – | 2 µg/mL (≈ 3.73 µM) | – | 16 µg/mL (≈ 29.8 µM) | > 128 µg/mL | > 128 µg/mL | > 128 µg/mL | > 128 µg/mL | > 128 µg/mL | 1.7 µg/mL (≈ 3.17 µM) | 8 µg/mL (≈ 14.9 µM) | 8 µg/mL (≈ 14.9 µM) | 16 µg/mL (≈ 29.8 µM) | > 128 µg/mL | > 128 µg/mL | > 128 µg/mL | > 128 µg/mL | > 128 µg/mL | > 128 µg/mL | MIC (Pseudomonas aeruginosa [21]): > 128 µg/mL; MIC [22]: > 128 µg/mL; MIC (Enterobacter cloacae): > 128 µg/mL; MIC (Klebsiella aerogenes): > 128 µg/mL; MIC (Serratia marcescens): > 128 µg/mL; MIC (Morganella morganii): > 128 µg/mL; MIC (Providencia rettgeri): > 128 µg/mL; MIC (Proteus vulgaris): > 128 µg/mL; MIC (Proteus mirabilis): > 128 µg/mL; MIC (Citrobacter freundii): > 128 µg/mL
N=C(c1ccc2cc(-c3ccc(Oc4ccc(-c5cc6ccc(C(=N)N7CCCC7)cc6[nH]5)cc4)cc3)[nH]c2c1)N1CCCC1 | 0.5 µg/mL (≈ 0.844 µM) | 8 µg/mL (≈ 13.5 µM) | 2 µg/mL (≈ 3.37 µM) | 32 µg/mL (≈ 54 µM) | 2 µg/mL (≈ 3.37 µM) | 16 µg/mL (≈ 27 µM) | 64 µg/mL (≈ 108 µM) | 64 to 128 µg/mL (≈ 108 to 216 µM) | 64 to 128 µg/mL (≈ 108 to 216 µM) | 64 to 128 µg/mL (≈ 108 to 216 µM) | 3.2 µg/mL (≈ 5.4 µM) | 8 µg/mL (≈ 13.5 µM) | 1 µg/mL (≈ 1.69 µM) | 2 µg/mL (≈ 3.37 µM) | 64 µg/mL (≈ 108 µM) | 64 µg/mL (≈ 108 µM) | 128 µg/mL (≈ 216 µM) | 64 µg/mL (≈ 108 µM) | > 128 µg/mL | > 128 µg/mL | MIC (Staphylococcus aureus [23]): 1 µg/mL (≈ 1.69 µM); MIC [24]: 1 µg/mL (≈ 1.69 µM); MIC (Enterococcus faecalis [25]): 32 µg/mL (≈ 54 µM); MIC (Enterococcus faecium [26]): 2 µg/mL (≈ 3.37 µM); MIC (Staphylococcus aureus [27]): 1 µg/mL (≈ 1.69 µM); MIC (Enterococcus faecalis [28]): 8 µg/mL (≈ 13.5 µM); MIC (Enterococcus faecium [29]): 8 µg/mL (≈ 13.5 µM); MIC (Pseudomonas aeruginosa [21]): > 128 µg/mL; MIC [22]: > 128 µg/mL; MIC (Enterobacter cloacae): 64 µg/mL (≈ 108 µM); MIC (Klebsiella aerogenes): > 128 µg/mL; MIC (Serratia marcescens): > 128 µg/mL; MIC (Morganella morganii): 16 µg/mL (≈ 27 µM); MIC (Providencia rettgeri): > 128 µg/mL; MIC (Proteus vulgaris): 64 µg/mL (≈ 108 µM); MIC (Proteus mirabilis): 128 µg/mL (≈ 216 µM); MIC (Salmonella typhi): 32 µg/mL (≈ 54 µM); MIC (Citrobacter freundii): 128 µg/mL (≈ 216 µM)
CC1CCN(C(=N)c2ccc3cc(-c4ccc(Oc5ccc(-c6cc7ccc(C(=N)N8CCC(C)CC8)cc7[nH]6)cc5)cc4)[nH]c3c2)CC1 | 4 µg/mL (≈ 6.16 µM) | 64 µg/mL (≈ 98.6 µM) | 8 µg/mL (≈ 12.3 µM) | 128 µg/mL (≈ 197 µM) | 16 µg/mL (≈ 24.7 µM) | > 128 µg/mL | > 128 µg/mL | > 128 µg/mL | > 128 µg/mL | > 128 µg/mL | 3.2 µg/mL (≈ 4.93 µM) | 128 µg/mL (≈ 197 µM) | 16 µg/mL (≈ 24.7 µM) | 16 µg/mL (≈ 24.7 µM) | > 128 µg/mL | > 128 µg/mL | > 128 µg/mL | > 128 µg/mL | > 128 µg/mL | > 128 µg/mL | MIC (Staphylococcus aureus [23]): 16 µg/mL (≈ 24.7 µM); MIC [24]: 8 µg/mL (≈ 12.3 µM); MIC (Enterococcus faecalis [25]): 128 µg/mL (≈ 197 µM); MIC (Enterococcus faecium [26]): 16 µg/mL (≈ 24.7 µM); MIC (Staphylococcus aureus [27]): 16 µg/mL (≈ 24.7 µM); MIC (Enterococcus faecalis [28]): 128 µg/mL (≈ 197 µM); MIC (Enterococcus faecium [29]): 128 µg/mL (≈ 197 µM); MIC (Pseudomonas aeruginosa [21]): > 128 µg/mL; MIC [22]: > 128 µg/mL; MIC (Enterobacter cloacae): > 128 µg/mL; MIC (Klebsiella aerogenes): > 128 µg/mL; MIC (Serratia marcescens): > 128 µg/mL; MIC (Morganella morganii): > 128 µg/mL; MIC (Providencia rettgeri): > 128 µg/mL; MIC (Proteus vulgaris): > 128 µg/mL; MIC (Proteus mirabilis): > 128 µg/mL; MIC (Salmonella typhi): > 128 µg/mL; MIC (Citrobacter freundii): > 128 µg/mL
